Test results taken from ChEMBL document CHEMBL1201862, “PubChem BioAssay data set” (2004).
Calls of active or inactive are those of the source.

Tests used:
HEK293 = assay: viability loss in HEK293T cells – cell-based, ATP luminescence, cherry-pick samples, cytotoxicity control, dose response (AID 687005); format: functional; settings: Homo sapiens;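 note: cells exposed to compound for 48 hours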
[1] = HEK293 Cytotoxicity Assay Measured in Cell-Based System Using Plate Reader - 7071-01_Inhibitor_Dose_CherryPick_Activity_Set2.; format: functional
[2] = target: Nuclear receptor subfamily 5 group A member 2 (Homo sapiens, UniProt O00482); format: functional, cell-based;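 note: HEK293T cells transfected with LRH-1 and a StAR promoter luciferase reporter; potency for inhibitors that lower LRH-1 driven reporter light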
Sequence of Nuclear receptor subfamily 5 group A member 2 (O00482 whole entry): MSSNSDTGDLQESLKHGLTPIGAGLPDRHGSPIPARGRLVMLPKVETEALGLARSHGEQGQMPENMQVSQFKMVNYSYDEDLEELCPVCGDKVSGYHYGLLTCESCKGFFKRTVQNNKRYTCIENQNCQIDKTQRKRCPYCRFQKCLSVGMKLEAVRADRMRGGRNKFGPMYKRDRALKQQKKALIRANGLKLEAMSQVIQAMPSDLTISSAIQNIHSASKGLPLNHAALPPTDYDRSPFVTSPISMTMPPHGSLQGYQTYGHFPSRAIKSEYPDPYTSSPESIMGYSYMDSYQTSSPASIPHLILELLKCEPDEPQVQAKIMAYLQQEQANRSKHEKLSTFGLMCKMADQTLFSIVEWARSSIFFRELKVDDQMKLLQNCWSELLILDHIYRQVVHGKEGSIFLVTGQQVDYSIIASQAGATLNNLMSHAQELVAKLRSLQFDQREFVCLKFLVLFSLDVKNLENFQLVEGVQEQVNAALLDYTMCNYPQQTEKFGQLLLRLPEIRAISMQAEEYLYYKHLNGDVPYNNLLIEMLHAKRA

Steroidogenic factor 1 = Steroidogenic factor 1 (Homo sapiens, UniProt Q13285); assay: Counterscreen for inverse agonists of the liver receptor homolog-1 (LRH-1; NR5A2): Luminescence-based cell-based high throughput dose response assay to identify inverse agonists of the Steroidogenic Factor 1 Nuclear Receptor (SF1; NR5A1).; format: functional
Sequence of Steroidogenic factor 1 (Q13285 whole entry): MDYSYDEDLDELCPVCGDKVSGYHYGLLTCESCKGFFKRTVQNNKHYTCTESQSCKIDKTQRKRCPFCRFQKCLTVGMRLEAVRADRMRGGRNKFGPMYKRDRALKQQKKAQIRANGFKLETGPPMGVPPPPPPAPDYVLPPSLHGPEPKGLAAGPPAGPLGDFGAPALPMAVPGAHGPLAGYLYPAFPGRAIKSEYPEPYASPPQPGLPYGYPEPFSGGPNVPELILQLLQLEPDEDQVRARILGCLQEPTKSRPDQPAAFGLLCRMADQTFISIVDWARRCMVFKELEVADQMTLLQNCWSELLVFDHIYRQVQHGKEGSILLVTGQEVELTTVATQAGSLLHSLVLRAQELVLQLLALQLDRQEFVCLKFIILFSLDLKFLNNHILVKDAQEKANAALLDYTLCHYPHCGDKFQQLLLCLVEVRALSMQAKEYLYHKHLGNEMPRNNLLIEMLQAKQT

[3] = nonselective StAR promoter luciferase inhibitors – cell-based, luminescence, luciferase reporter, counter-screen for LRH-1 inverse agonist project, dose response (AID 651969); format: functional
[4] = inhibition of ARNT PAS-B/TACC3 complex formation – biochemical, AlphaScreen, cherry-picked samples, confirmation (AID 651703); format: functional, Homo sapiens;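 note: His-tagged ARNT PAS-B domain paired with GST-TACC3 E629A dimer coactivator fragment; potency of inhibitors that break up the complex and lower AlphaScreen signal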
A549 = assay: viability loss in A549 cells – cell-based, plate reader, cherry-pick samples, cytotoxicity control, dose response (AID 687028); format: functional; settings: Homo sapiens
Paired box protein Pax-8 = Paired box protein Pax-8 (Homo sapiens, UniProt Q06710); assay: PAX8 transcriptional activity inhibition in RMG-I – RMG-I cells, luciferase, cherry-pick, dose response (AID 687027); format: functional, cell-based;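 note: luciferase reporter driven by Pax8 target thyroperoxidase promoter measured by SteadyGlo luminescence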
Sequence of Paired box protein Pax-8 (Q06710 whole entry): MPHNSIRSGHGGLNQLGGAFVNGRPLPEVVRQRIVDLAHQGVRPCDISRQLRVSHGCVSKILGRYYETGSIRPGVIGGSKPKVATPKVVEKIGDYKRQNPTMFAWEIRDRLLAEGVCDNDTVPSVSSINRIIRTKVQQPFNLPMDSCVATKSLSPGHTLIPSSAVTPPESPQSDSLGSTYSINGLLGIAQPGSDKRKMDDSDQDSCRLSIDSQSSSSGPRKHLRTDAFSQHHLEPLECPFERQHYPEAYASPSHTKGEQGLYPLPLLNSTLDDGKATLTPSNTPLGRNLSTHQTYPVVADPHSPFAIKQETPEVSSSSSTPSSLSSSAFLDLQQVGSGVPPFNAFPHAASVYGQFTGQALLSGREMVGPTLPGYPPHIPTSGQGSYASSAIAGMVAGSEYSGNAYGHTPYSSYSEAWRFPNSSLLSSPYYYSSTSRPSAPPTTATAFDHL

[5] = inhibitors acting on PAX2 in cells – cell-based, plate reader, dry powder samples, selectivity assay for PAX8 inhibitor project, dose response (AID 743048); format: functional;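 note: HEK293 cells carrying a WT1 promoter luciferase reporter driven by expressed Pax2; potency is for inhibition of Pax2 driven reporter signal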
[6] = COV362 cell viability loss – plate reader, dry powder, SA12, cytotoxicity control for PAX8 inhibitor project, dose response (AID 743144); format: functional, cell-based
[7] = OVCAR-3 cell viability loss – plate reader, dry powder samples, PAX8 inhibitor project, dose response (AID 743044); format: functional, cell-based
[8] = PAX5 cellular inhibition readout – cell-based, plate reader, dry powder samples, selectivity assay for PAX8 inhibitor project, dose response (AID 743047); format: functional;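 note: HEK293 cells carrying a Pax5 driven CD19 promoter luciferase reporter; potency of inhibitors that lower reporter luminescence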
[9] = IGROV1 cell killing – plate reader, dry powder samples, PAX8 inhibitor project, dose response (AID 743043); format: functional, cell-based; settings: IGROV-1
[10] = OVCAR4 cell viability loss – plate reader, dry powder, SA11, cytotoxicity control for PAX8 inhibitor project, dose response (AID 743150); format: functional, cell-based; settings: OVCAR-4
[11] = COV434 cell viability loss – plate reader, dry powder, SA7, cytotoxicity control for PAX8 inhibitor project, dose response (AID 743145); format: functional, cell-based
[12] = OV-90 cell viability loss – plate reader, dry powder, SA8, PAX8 inhibitor project, dose response (AID 743149); format: functional, cell-based
[13] = PAX8-dependent cell viability loss – plate reader, dry powder, dose response (AID 743049); format: functional, cell-based
[14] = MITF Orthogonal Assay: SK-MEL-5 CTG Assay Measured in Cell-Based System Using Plate Reader - 2084-02_Inhibitor_Dose_DryPowder_Activity_Set7.; format: functional
[15] = MITF: Counter assay: A375 proliferation Measured in Cell-Based System Using Plate Reader - 2084-03_Inhibitor_Dose_DryPowder_Activity_Set8.; format: functional; settings: A-375
[16] = inhibitors of TRPM1-promoter reporter in SK-MEL-5 – cell-based, luciferase, dry powder, set 8, MITF inhibitor project, dose response (AID 624430); format: functional
[17] = A Cell-Based Confirmatory Screen for Compounds that Inhibit VEEV, TC-83 (7).; format: functional
[18] = mouse embryonic fibroblast toxicity – cell-based, plate reader, dry powder, set 2, cytotoxicity control, dose response (AID 652280); format: functional; settings: NIH3T3
[19] = T. cruzi growth inhibition in host cells, dose response, cell-based, plate reader, dry powder, set 2 (AID 652275); format: functional
[20] = P. falciparum Dd2 growth inhibitors, dose response, SYBR Green, cherry-picked samples (AID 1159567); format: functional, cell-based
[21] = target: Endoplasmic reticulum aminopeptidase 1 (Homo sapiens, UniProt Q9NZ08); assay: inhibition of human ERAP1 enzyme activity – biochemical, cherry-pick, set 2, plate reader, dose response (AID 743314)
Sequence of Endoplasmic reticulum aminopeptidase 1 (Q9NZ08 whole entry): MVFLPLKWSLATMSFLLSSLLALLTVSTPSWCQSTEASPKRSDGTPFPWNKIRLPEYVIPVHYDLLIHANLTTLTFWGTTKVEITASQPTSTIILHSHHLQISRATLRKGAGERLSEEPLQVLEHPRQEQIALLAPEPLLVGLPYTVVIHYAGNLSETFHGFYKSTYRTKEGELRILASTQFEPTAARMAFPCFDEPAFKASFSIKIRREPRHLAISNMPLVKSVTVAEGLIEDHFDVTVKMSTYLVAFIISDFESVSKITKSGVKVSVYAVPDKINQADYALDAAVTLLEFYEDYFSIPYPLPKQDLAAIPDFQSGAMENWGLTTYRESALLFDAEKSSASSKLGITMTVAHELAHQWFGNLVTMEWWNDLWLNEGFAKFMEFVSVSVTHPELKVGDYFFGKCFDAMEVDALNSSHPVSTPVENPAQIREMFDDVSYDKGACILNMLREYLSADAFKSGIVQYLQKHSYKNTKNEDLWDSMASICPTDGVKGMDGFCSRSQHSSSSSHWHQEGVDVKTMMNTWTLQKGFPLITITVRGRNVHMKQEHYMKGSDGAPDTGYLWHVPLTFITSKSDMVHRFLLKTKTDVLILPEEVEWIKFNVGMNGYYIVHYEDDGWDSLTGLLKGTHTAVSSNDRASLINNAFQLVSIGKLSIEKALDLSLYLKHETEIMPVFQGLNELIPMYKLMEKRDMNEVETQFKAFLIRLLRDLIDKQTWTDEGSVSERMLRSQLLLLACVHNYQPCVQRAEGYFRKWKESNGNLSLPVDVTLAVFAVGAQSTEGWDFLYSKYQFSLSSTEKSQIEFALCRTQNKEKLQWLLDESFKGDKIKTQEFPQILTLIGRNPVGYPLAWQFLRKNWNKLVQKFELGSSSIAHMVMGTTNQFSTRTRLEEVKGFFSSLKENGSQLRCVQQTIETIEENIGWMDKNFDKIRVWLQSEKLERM

O=C(c1cccc(Br)c1)N1CCN(c2ccccn2)CC1
AC50 (HEK293): > 52 µM (inactive) | AC50 [1]: > 52 µM (inactive)

CC(=O)Nc1cc(-c2ccc(F)cc2)cn2c(-c3ccc(S(C)(=O)=O)cc3)cnc12
IC50 [2]: 8.66 µM (active) | IC50 (Steroidogenic factor 1): 3.15 µM (active) | IC50 [3]: 21.3 µM (inactive)

C[C@@H]1CN([C@H](C)CO)C(=O)c2cc(N(C)C)ccc2O[C@@H](C)CCCCO[C@@H]1CN(C)Cc1ccc2c(c1)OCO2
AC50 [4]: 74.9 µM (active)

C[C@@H]1CCCCO[C@H](CN(C)C(=O)Nc2ccc(C(F)(F)F)cc2)[C@H](C)CN([C@@H](C)CO)C(=O)c2cc(NS(=O)(=O)c3ccc(F)cc3)ccc2O1
AC50 (A549): 28.1 µM (active)

COc1ccc(S(=O)(=O)Nc2ccc3c(c2)C(=O)N([C@@H](C)CO)C[C@H](C)[C@H](CN(C)Cc2ccc(C(F)(F)F)cc2)OCCCC[C@H](C)O3)cc1
AC50 (Paired box protein Pax-8): 5.59 µM (active) | AC50 [5]: 15.5 µM (active) | AC50 [6]: 38.3 µM (active) | AC50 [7]: 17.1 µM (active) | AC50 [8]: 19.6 µM (active) | AC50 [9]: 34.5 µM (active) | AC50 [10]: 33.6 µM (active) | AC50 [11]: 26.5 µM (active) | AC50 [12]: 21.9 µM (active) | AC50 [13]: 24.2 µM (active)

CN1CCN(C2=C(Nc3ccc(Cl)c(Cl)c3)C(=O)c3ccccc3C2=O)CC1
AC50 [14]: 7.66 µM (active) | AC50 [15]: 27.9 µM (active) | AC50 [16]: 6.64 µM (active)

O=c1c2cc([N+](=O)[O-])ccc2nc(CN2CCCNC2)n1-c1ccccc1
IC50 [17]: 1.13 µM (active)

CN(C)CC#Cc1cccc(-c2nc(C(=O)N[C@@H]3CCN(Cc4ccccc4)C3)cc3c2[C@H](CCO)N([S+]([O-])C(C)(C)C)C3)c1 (stereo not given in full)
AC50 [18]: 5.14 µM (active) | AC50 [19]: 0.58 µM (active) | AC50 [20]: 2.71 µM (active)

CCCNC(=O)[C@H]1[C@H](CO)[C@H]2Cn3c(ccc(/C=C/c4ccccc4)c3=O)[C@H]2N1CCC
AC50 [21]: 14.8 µM (active)
